Literature values as cited in US8288445B2, “Stable pharmaceutical products” (Nycomed GmbH, priority 2003, dated 2012).

Conditions: disclosed in U.S. Pat. No. 6,268,533 and WO 00/21487

COc1ccc(C[C@@H](C)NC[C@H](O)c2ccc(O)c(NC=O)c2)cc1.O=C(O)C(O)C(O)C(=O)O [L-(+)-tartrate salt of R,R-formoterol]
hygroscopicity: non-hygroscopic
